Assays:
[1] = test system: esophagus tissues (non-erosive esophageal damage induced by TCA and DCA); assay: Effect on non-erosive esophageal damage: tissue conductance of esophagus in Ussing chamber after TCA+DCA treatment; format: in vivo, C57Bl/6J mice; settings: mice given 4 mM TCA and 2 mM DCA in drinking water for 6 days, Compound A in drinking water for the same period; versus TCA+DCA control; FIG. 1
Procedure: Effect on non-erosive esophageal damage Male or female C57Bl/6J mice were allowed free access to drinking tap water containing 4 mM taurocholic acid (TCA) and 2 mM deoxycholic acid (DCA) for 6 days. On the day after treatment with TCA and DCA, the mice were sacrificed and their esophagus was removed. The esophagus tissues were divided into two parts and distal parts were used for the study. Each tissue was mounted in the Ussing chamber and short-circuit currents were measured. Compound A ((−)-7-{(2R,4aR,5R,7aR)-2-[(3S)-1,1-difluoro-3-methylpentyl]-2-hydroxy-6-oxooctahydrocyclopenta[b]pyran-5-yl}heptanoic acid) was administered to mice in drinking water for the same period of TCA+DCA treatment. Tissue conductance calculated based on the short-circuit current data was used as an index of tissue damage.

[2] = test system: mouse esophageal tissues (epithelial layer); assay: HE staining of mouse esophageal tissues; format: in vivo; settings: 6 days of treatment, Compound A with TCA/DCA; FIG. 2
Source text: The mouse esophageal tissues were isolated after 6 days of treatment with control vehicle or drugs (DMSO, TCA/DCA, or Compound A with TCA/DCA). The tissues were separated into two parts, and their lower parts were used for preparation of RT-PCR samples as well as for electrophysiological examination and HE staining. The samples for HE staining were fixed with 10% neutral buffered formalin solution for 12 hrs, after which they were dehydrated and fixed in paraffin. The samples were sliced into 7 μm thick slices in a microtome, and then placed on slide glasses at 43° C. for lhr and then at 55° C. overnight. Following this, tissues were stained with Hematoxylin and Eosin staining solution. The samples were evaluated in a suitable microscope (Olympus EX-43).

claudin-2 = assay: Quantitative real-time RT-PCR, claudin-2 expression in mouse esophagus tissue; format: in vivo; settings: 6 days, TCA/DCA with 50 μM Compound A in drinking water, n=3; FIG. 3
Procedure: (§1) mRNA was prepared from mouse esophagus tissue after 6 days of treatment with vehicle or active agents (Group1:DMSO control, Group2:TCA/DCA positive control, and Group3:TCA/DCTA with 50 μM Compound A in drinking water, n=3 in each group) and reversely transcribed to cDNA by reverse transcriptase (Superscript III, Invitrogen).
(§2) Expression levels of claudin-2 which is expressed in cation-leaky epithelia, and claudin-4 which is a component of tight junction strands (PNAS 107(17), 8011-8016, 2010; Development Biology 312, 509-522, 2007; and Seminars in Cell & Developmental Biology 36 166-176, 2014), were normalized to GAPDH expression by calculating the A Ct=(Ct of GAPDH−Ct of gene). Setting the expression value of GAPDH to 1.0, the relative expression values were then calculated as 2̂ΔCt.

claudin-4 = assay: Quantitative real-time RT-PCR, claudin-4 expression in mouse esophagus tissue; format: in vivo; settings: 6 days, TCA/DCA with 50 μM Compound A in drinking water, n=3; FIG. 4
Procedure: as §1, §2

SMILES: CC[C@H](C)CC(F)(F)[C@@]1(O)CC[C@H]2[C@@H](CC(=O)[C@@H]2CCCCCCC(=O)O)O1 [Compound A, (−)-7-{(2R,4aR,5R,7aR)-2-[(3S)-1,1-difluoro-3-methylpentyl]-2-hydroxy-6-oxooctahydrocyclopenta[b]pyran-5-yl}heptanoic acid]
- Tissue conductance (index of tissue damage) [1]: reduced from that found in control animals
- Tissue structure (HE staining), damage of epithelial layer by bile acids [2]: restores or protects against damage by bile acids histologically
- Expression level of claudin-2 (normalized to GAPDH) (claudin-2): downregulated
- Expression level of claudin-4 (normalized to GAPDH) (claudin-4): upregulated

Reference: patent publication US20160120840A1, “METHOD AND COMPOSITION FOR TREATING NONEROSIVE REFLUX DISEASE” (SUCAMPO AG, priority 2014, published 2016)
